Test results reported in PMC9737772, “Synthesis and Anti-Inflammatory Activity of 1-Methylhydantoin Cinnamoyl Imides” (Molecules, 2022).
Entries after “also recorded” stand apart in the source; their conditions may differ.

Tests used:
[1] = target: T1, ovine cyclooxygenase-1 (COX-1) (Ovis aries, UniProt P05979); assay: In vitro COX inhibition assay (enzyme immunoassay kit), COX-1; assay type: biochemical; conditions: ovine COX-1, enzyme immunoassay kit
T1 construct: purchased Cayman Chemical 560131
T1 sequence (P05979 25-600): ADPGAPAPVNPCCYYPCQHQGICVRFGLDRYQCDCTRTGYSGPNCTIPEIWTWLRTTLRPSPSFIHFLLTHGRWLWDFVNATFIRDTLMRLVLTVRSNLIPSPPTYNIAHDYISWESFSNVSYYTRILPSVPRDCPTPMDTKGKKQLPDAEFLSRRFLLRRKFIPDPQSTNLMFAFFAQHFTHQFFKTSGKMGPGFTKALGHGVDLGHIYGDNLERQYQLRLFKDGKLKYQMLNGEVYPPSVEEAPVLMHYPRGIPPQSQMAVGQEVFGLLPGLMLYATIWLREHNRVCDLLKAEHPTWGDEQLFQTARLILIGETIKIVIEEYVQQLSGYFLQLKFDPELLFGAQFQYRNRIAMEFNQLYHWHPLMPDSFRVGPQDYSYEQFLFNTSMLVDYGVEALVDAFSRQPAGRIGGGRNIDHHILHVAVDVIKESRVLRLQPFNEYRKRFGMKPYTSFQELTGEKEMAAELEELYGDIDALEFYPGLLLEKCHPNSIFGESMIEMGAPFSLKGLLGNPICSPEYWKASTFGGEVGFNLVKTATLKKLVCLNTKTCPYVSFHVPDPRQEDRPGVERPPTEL
Protocol: (§1) The inhibition ability of 1-methylhydantoin cinnamic imides to ovine cyclooxygenase-1 (COX-1) and cyclooxygenase-2 (COX-2) was determined using an enzyme immunoassay kit. […] The Cell Counting Kit-8 (CCK-8) method was used to detect the cytotoxicity of the five target compounds (1–5) on lipopolysaccharide (LPS)-induced RAW264.7 cells. When the concentrations of compounds 1, 3 and 5 are lower than 20 μM, and when the concentrations of compounds 2 and 4 are lower than 80 μM, the survival rate of RAW264.7 cells is more than 95%, which has no obvious damage to cell survival and can be used for subsequent in vitro anti-inflammatory activity experiments to provide the basis.
(§2) The inhibition ability of ovine COX-1 and COX-2 was determined using an enzyme immunoassay kit (560131, Cayman Chemical, Ann Arbor, MI, USA) following the manufacturer’s instructions.

[2] = target: T2, ovine cyclooxygenase-2 (COX-2); assay: In vitro COX inhibition assay (enzyme immunoassay kit), COX-2; assay type: biochemical; conditions: ovine COX-2, enzyme immunoassay kit
T2 construct: purchased Cayman Chemical 560131
T2 sequence (P35354 18-604): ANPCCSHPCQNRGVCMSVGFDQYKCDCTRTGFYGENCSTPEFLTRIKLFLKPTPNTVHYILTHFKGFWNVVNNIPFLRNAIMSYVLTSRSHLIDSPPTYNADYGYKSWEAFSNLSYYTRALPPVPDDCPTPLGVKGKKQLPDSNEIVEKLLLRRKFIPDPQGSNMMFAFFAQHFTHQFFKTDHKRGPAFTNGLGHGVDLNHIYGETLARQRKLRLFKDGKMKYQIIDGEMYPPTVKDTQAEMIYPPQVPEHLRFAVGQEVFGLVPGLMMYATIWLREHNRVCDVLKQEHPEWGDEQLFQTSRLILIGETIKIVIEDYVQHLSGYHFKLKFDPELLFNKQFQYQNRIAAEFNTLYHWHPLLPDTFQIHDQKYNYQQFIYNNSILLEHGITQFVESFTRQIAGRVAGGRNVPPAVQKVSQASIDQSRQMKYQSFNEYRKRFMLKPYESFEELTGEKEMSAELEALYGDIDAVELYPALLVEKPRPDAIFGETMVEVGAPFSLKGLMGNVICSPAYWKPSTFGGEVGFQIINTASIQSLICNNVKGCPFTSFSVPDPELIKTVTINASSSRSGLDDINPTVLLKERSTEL
Protocol: as §1, §2

[3] = Cytotoxicity determination by CCK-8; assay type: cell-based; conditions: mouse, RAW264.7 macrophage cells, RAW264.7 cells
Protocol: (§3) RAW264.7 mouse macrophages were purchased from Zhongqiao Xinzhou and cultured in DMEM supplemented with 10% fetal bovine serum (FBS) and 1% penicillin/streptomycin in a 37 °C, 5% CO2 incubator. The cells were passaged every two days to maintain the monolayer cell state.
The CCK-8 kit was used to determine the cytotoxicity of the target compounds (1–5) to RAW264.7 cells. The well-growing cells were subcultured in a 96-well plate. After the cells adhered to the wall, the experimental group was added with a medium containing different concentrations of compounds to make the final concentration reach 5, 10, 20, 40, 80, 160 and 320 μmoL/L. The control group was added with a medium without compound, and a blank group without cells or compound was set at the same time. After culturing in a constant temperature incubator for a period, CCK-8 solution was added to produce yellow formazan product. The OD value was measured by the microplate reader at the detection wavelength of 450 nm, and the cell survival rate was calculated. The cell survival rate formula is as follows:(1) Cell Survival Rate %=ODe−ODb/ODc−ODb×100% where ODe was the OD value of the experimental group, ODb was the OD value of the blank group, and ODc was the OD value of the control group.

[4] = system: NO release from RAW264.7 cells induced by LPS; assay: NO content in supernatant of LPS-induced RAW264.7 cells (Griess); assay type: cell-based, mouse; conditions: for inhibition of NO production: 80 μM, LPS 1 ug/mL, 24 h, RAW264.7; for inhibition of NO release: LPS-stimulated RAW264.7, concentration not stated
Protocol: NO is an important indicator to predict the anti-inflammatory effects of drugs. It has been identified as a proinflammatory cytokine in various inflammatory diseases. NO can induce vasodilation, recruit neutrophils and […] the activation of mast cells, leading to tissue damage. It is essential to reduce the production of NO for inflammatory release. To explore the anti-inflammatory effects of the five compounds, the LPS-induced inflammatory response of RAW264.7 cells was carried out. The NO content in the cell supernatant was measured by the Griess method to evaluate the inhibitory effects of these five compounds on NO production.
as §3
(§4) The RAW264.7 cells in the logarithmic growth phase were seeded in a 24-well plate and placed in a 37 °C, 5% CO2 constant temperature incubator for culture. After 24 h, the culture medium was discarded. The blank group was added with 10% FBS DMEM 1 mL. The group was added with a medium containing 1 ug/mL LPS, and the experimental group was added with LPS and different concentrations of the target compound to make the final volume 1 mL. After 24 h of culture, the cell supernatant was taken and stored in a refrigerator at −20 °C for later use. The Griess kit was used to determine the concentration of NO in the supernatant, and a double antibody sandwich ELISA kit was used to detect TNF-α and IL-1β.

[5] = system: IL-1β secretion in RAW264.7 cells induced by LPS; assay: IL-1β content in supernatant of LPS-induced RAW264.7 cells (ELISA); assay type: cell-based, mouse
Text: Interleukin-1β (IL-1β) has strong proinflammatory activity and can induce the production of a variety of proinflammatory mediators, such as cytokines and chemokines. In this work, the ELISA method was used to determine the IL-1β content in the supernatant of RAW264.7 cells stimulated by LPS to evaluate the effects of five compounds on IL-1β secretion.
as §3, §4

[6] = 80 μM, LPS, 24 h, RAW264.7, vs model group
[7] = LPS-stimulated RAW264.7, concentration not stated

## CN1CC(=O)N(C(=O)/C=C/c2ccco2)C1=O [Compound 2, (E)-3-(3-(furan-2-yl)acryloyl)-1-methylimidazolidine-2,4-dione]
[1]
  IC50: 56 ± 6 µM
[2]
  IC50: 204 ± 10 µM
[3]
  CC50: 329 µM
[4]
  inhibition of NO production: showed a significant effect on NO
  inhibition of NO release: significantly inhibit the release of NO
[5]; 20 μM, LPS, 24 h, RAW264.7, vs model group
  inhibition of IL-1β secretion: no obvious inhibitory effect on IL-1β
[5]; [6]
  inhibition of IL-1β secretion: significant inhibitory effect on the secretion of IL-1β
[5]; [7]
  inhibition of IL-1β secretion: reduce the secretion of TNF-α and IL-1β
other
  melting point: 128.9 to 129.8 °C

## CC(=O)Oc1ccc(/C=C/C(=O)N2C(=O)CN(C)C2=O)cc1 [Compound 4, (E)-4-(3-(3-methyl-2,5-dioxoimidazolidin-1-yl)-3-oxoprop-1-en-1-yl)phenyl acetate]
[1]
  IC50: 37 ± 4 µM
[2]
  IC50: 126 ± 12 µM
[3]
  CC50: 302 µM
[4]
  inhibition of NO production: showed a significant effect on NO
  inhibition of NO release: significantly inhibit the release of NO; also recorded: reduced the release of NO
[5]; [6]
  inhibition of IL-1β secretion: significant inhibitory effect on the secretion of IL-1β
[5]; [7]
  inhibition of IL-1β secretion: reduce the secretion of TNF-α and IL-1β; also recorded: significantly inhibited the secretion of inflammatory factors TNF-α and IL-1β
other
  melting point: 148.9 to 149.6 °C
